Assay results as given in ChEMBL document CHEMBL1201862, “PubChem BioAssay data set” (2004).
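Exposure lasted 48 hours, with cells grown in 96-well plates and compounds tested at five concentrations. GI50 is the concentration that inhibits growth by half.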 Active and inactive are the calls of the source. No stated cut-off is given here; in the data, active = GI50 up to about 1.1 µM and inactive = higher.

Assays:
Assay in all cases: growth of human tumour cells (NCI), 48 h
M19-MEL = tested on: M19-MEL
SNB-78 = tested on: SNB-78
LXFL 529 = tested on: LXFL 529
KM-20L2 = tested on: KM-20L2
DLD-1 = tested on: DLD-1
T47D = tested on: T47D
MCF7 = tested on: MCF7
HOP-18 = tested on: HOP-18

Row | Compound | GI50 (T47D) | GI50 (MCF7) | other results
1 | CCOC(=O)/C(=C\c1ccc(N(CCC#N)CCC#N)cc1C)NC(=O)/C=C/c1ccccc1 |  |  | GI50 (M19-MEL): > 100 µM (inactive); GI50 (SNB-78): > 100 µM (inactive); GI50 (LXFL 529): > 100 µM (inactive); GI50 (KM-20L2): > 100 µM (inactive); GI50 (DLD-1): > 100 µM (inactive)
2 | CC(C)c1ccc2c(c1)[C@@]1(C)CC[C@H](C)C(C)(C)C1CC2 (stereo partly specified) | 26.1 µM (inactive) | 17.2 µM (inactive) | 
3 | CCC1c2[nH]c3ccccc3c2C[C@H]2C(=O)NC(C)C(=O)N12 (stereo partly specified) | > 100 µM (inactive) | > 100 µM (inactive) | 
4 | Cc1ccc(-c2nnc(SCC(=O)O)[nH]2)cc1 |  |  | GI50 (M19-MEL): > 100 µM (inactive); GI50 (HOP-18): > 100 µM (inactive); GI50 (SNB-78): > 100 µM (inactive); GI50 (LXFL 529): > 100 µM (inactive); GI50 (KM-20L2): > 100 µM (inactive); GI50 (DLD-1): > 100 µM (inactive)
5 | COC(=O)/C=C\n1ncc(=O)[nH]c1=O | > 100 µM (inactive) |  | 
6 | O=C(O)Cc1ccccc1 [PHENYLACETIC ACID] | > 100 µM (inactive) | > 1000 µM (inactive) | 
7 | O=C(O)CCCN1CCCCC1 | > 100 µM (inactive) |  | 
8 | COc1cc2c(c(N)c1OC)C(=O)/C(=C/c1cc(C)c(O)c(C)c1)C2 | > 100 µM (inactive) | < 0.01 µM (active) | 
9 | CC12CC(=O)C3C(C(=O)C1)C32C (stereo unspecified) |  | > 100 µM (inactive) | 
10 | Nc1ccccc1SCc1csc(-c2ccc(Cl)cc2)n1 | 5.07 µM (inactive) | 23.8 µM (inactive) | 
11 | O=C1c2ccccc2C(=O)c2oc(Br)cc21 | 1.73 µM (inactive) | 0.46 µM (active) | 
12 | CCCCCOc1ccc(/C=N\c2ccc(CCc3ccc(/N=C/c4ccc(OCCCCC)cc4)cc3)cc2)cc1 |  | > 100 µM (inactive) | GI50 (M19-MEL): > 100 µM (inactive); GI50 (HOP-18): > 100 µM (inactive); GI50 (SNB-78): > 100 µM (inactive); GI50 (KM-20L2): > 100 µM (inactive); GI50 (DLD-1): > 100 µM (inactive)
13 | N#Cc1c(N)c2c(c(-c3ccccc3)c1-c1ccccc1)C(=O)N(O)C2=O | 22.8 µM (inactive) | 46.1 µM (inactive) | 
14 | Cc1ccc(C)n1-c1ccccc1C1C=CN(C(=O)OC(C)(C)C)C=C1 |  | 17.4 µM (inactive) | 
15 | C=C1C(=O)C2=CC1CCC(=O)C1(C)CCC(OC(C)=O)C(C)(C)C1CC2O (stereo unspecified) | 3.74 µM (inactive) | 0.798 µM (active) | 
16 | NC(=O)/N=C(\N)NC(=O)c1ccccc1 | > 100 µM (inactive) |  | 
17 | O=C(CCN1CCCCC1)C(=Cc1ccccc1)C(=O)CCN1CCCCC1 |  | 35.8 µM (inactive) | GI50 (M19-MEL): 67.3 µM (inactive); GI50 (HOP-18): > 10 µM (inactive); GI50 (SNB-78): > 62.5 µM (inactive); GI50 (KM-20L2): > 100 µM (inactive); GI50 (DLD-1): 20 µM (inactive)
18 | CCOC(=O)c1csc(NC(=O)CN2CCN(c3ccccc3)CC2)n1 | 94 µM (inactive) | > 100 µM (inactive) | 
19 | COc1ccc(NC(=S)N/N=C\c2ccc(NC(C)=O)cc2)cc1 | > 100 µM (inactive) |  | 

Row | Compound | GI50 (T47D) | GI50 (MCF7) | other results
20 | Cc1ccc(OCC2=NN3C(=O)/C(=C\c4ccc([N+](=O)[O-])o4)SC3N2)cc1 (stereo unspecified) | 2.17 µM (inactive) |  | 
21 | CC(O[Si](c1ccccc1)(c1ccccc1)C(C)(C)C)[C@H](NC(=O)OC(C)(C)C)C(=O)O (stereo partly specified) | 39.8 µM (inactive) | 27.5 µM (inactive) | 
22 | Cc1c(Cl)c(S(N)(=O)=O)cc2c1N=CNS2(=O)=O | > 100 µM (inactive) | > 100 µM (inactive) | 
23 | O=P1(N(CCCl)CCCl)Oc2c(Cl)cc(Cl)c(Cl)c2Cc2c(Cl)c(Cl)cc(Cl)c2O1 | > 100 µM (inactive) | 64.7 µM (inactive) | 
24 | CN(C)c1ccc(/C=C/c2cc(-c3ccccc3)[n+](C)n2-c2ccccc2)cc1 |  | 0.157 µM (active) | 
25 | COc1ccc2nc3c([N+](=O)[O-])ccc(NCCCN(C)C)c3c(N)c2c1 | 1.92 µM (inactive) | 1.15 µM (inactive) | 
26 | CC(O)c1cc2c(s1)C(=O)c1c(C(C)O)csc1C2=O (stereo unspecified) | 0.167 µM (active) | 0.0573 µM (active) | 
27 | CC[C@H](C)N(CCN)C(=O)c1cc2ccccc2c(-c2ccccc2Cl)n1 |  |  | GI50 (SNB-78): 14.3 µM (inactive); GI50 (LXFL 529): 3.3 µM (inactive); GI50 (KM-20L2): 13.2 µM (inactive)
28 | NC1CC(=O)c2c(Br)csc21 (stereo unspecified) | > 100 µM (inactive) | 49 µM (inactive) | 
29 | COc1cc(Oc2nc3ccc(C(F)(F)F)cc3nc2-c2ccccc2)cc(OC)c1OC | 54.7 µM (inactive) | 8.18 µM (inactive) | 
30 | C[N+]1([O-])[C@H]2CC(OC(=O)[C@H](CO)c3ccccc3)C[C@H]1[C@H]1O[C@H]12 (stereo partly specified) | > 100 µM (inactive) | > 100 µM (inactive) | 
31 | CC(C)=CC(=O)CC(=O)C(=O)Nc1ccc(Cl)c(Cl)c1 |  |  | GI50 (M19-MEL): > 100 µM (inactive); GI50 (SNB-78): > 100 µM (inactive); GI50 (LXFL 529): > 100 µM (inactive); GI50 (KM-20L2): > 100 µM (inactive); GI50 (DLD-1): > 100 µM (inactive)
32 | Cn1c(=O)c2nc(NCCO)cnc2n(C)c1=O |  |  | GI50 (M19-MEL): 56.5 µM (inactive); GI50 (SNB-78): > 100 µM (inactive); GI50 (LXFL 529): 36.5 µM (inactive); GI50 (KM-20L2): > 100 µM (inactive); GI50 (DLD-1): > 100 µM (inactive)
33 | CCOC(=O)COc1ccc(OC)c2c1C(=O)CCC2 |  |  | GI50 (M19-MEL): > 100 µM (inactive); GI50 (HOP-18): > 100 µM (inactive); GI50 (SNB-78): > 100 µM (inactive); GI50 (LXFL 529): > 100 µM (inactive); GI50 (KM-20L2): > 100 µM (inactive)
34 | CC(O)c1cc2c(s1)C(=O)c1ccsc1C2=O (stereo unspecified) | 0.316 µM (active) | 0.0457 µM (active) | 
35 | CCCCP(CCCC)(CCCC)=C(C(=O)OC)C(C(=O)OC)=C1SC(C(=O)OC)=C(C(=O)OC)S1 | 13.5 µM (inactive) | 16.8 µM (inactive) | 
36 | Fc1cccc(C2SCC3=Nc4ccccc4CN32)c1 (stereo unspecified) | 57.3 µM (inactive) | 35.4 µM (inactive) | 
37 | N#CC1(Nc2ccc(-c3ccc(NC4(C#N)CCCC4)cc3)cc2)CCCC1 | > 100 µM (inactive) | > 100 µM (inactive) | 
